Assay results: patent publication US20100317624A1 (ASTRAZENECA AB, priority 2009, published 2010)
Where a name gives a salt, the structure may show the parent alone.

These compounds were tested against S. aureus GyrB ATPase (Staphylococcus aureus, UniProt P0A0K8) (assay: S. aureus GyrB ATPase inhibition (ammonium molybdate/malachite green phosphate detection)). Details: compound at 1 μM; inhibition of S. aureus GyrB ATPase; read-out: Percent Inhibition (1 μM).
Assay type: biochemical
Experimental: S. aureus GyrB ATPase Inhibition Activity: Compounds may be tested for inhibition of S. aureus GyrB ATPase activity using an ammonium molybdate/malachite green-based phosphate detection assay (Lanzetta, P. A., L. J. Alvarez, P. S. Reinach, and O. A. Candia, 1979, 100: 95-97). Assays can be performed in multiwell plates in 30 μl reactions containing: 50 mM Hepes buffer pH 7.5, 75 mM ammonium acetate, 8.0 mM magnesium chloride, 0.5 mM ethylenediaminetetraacetic acid, 5% glycerol, 1.0 mM 1,4-Dithio-DL-threitol, 200 nM bovine serum albumin, 1.0 μg/ml sheared salmon sperm DNA, 250 pM E. coli GyrA, 250 pM S. aureus GyrB, 250 μM ATP, and compound in dimethylsulfoxide. Reactions can be quenched with 30 μl of ammonium molybdate/malachite green detection reagent containing 1.2 mM malachite green hydrochloride, 8.5 mM ammonium molybdate tetrahydrate, and 1 M hydrochloric acid. Plates can be read in an absorbance plate reader at 650 nm and percent inhibition values can be calculated using dimethylsulfoxide (2%)-containing reactions as 0% inhibition and EDTA-containing ([…]) reactions as 100% inhibition controls. An IC50 measurement of compound potency for each compound can be determined from reactions performed in the presence of 10 different compound concentrations.

Sequence of S. aureus GyrB ATPase (P0AES4 whole entry): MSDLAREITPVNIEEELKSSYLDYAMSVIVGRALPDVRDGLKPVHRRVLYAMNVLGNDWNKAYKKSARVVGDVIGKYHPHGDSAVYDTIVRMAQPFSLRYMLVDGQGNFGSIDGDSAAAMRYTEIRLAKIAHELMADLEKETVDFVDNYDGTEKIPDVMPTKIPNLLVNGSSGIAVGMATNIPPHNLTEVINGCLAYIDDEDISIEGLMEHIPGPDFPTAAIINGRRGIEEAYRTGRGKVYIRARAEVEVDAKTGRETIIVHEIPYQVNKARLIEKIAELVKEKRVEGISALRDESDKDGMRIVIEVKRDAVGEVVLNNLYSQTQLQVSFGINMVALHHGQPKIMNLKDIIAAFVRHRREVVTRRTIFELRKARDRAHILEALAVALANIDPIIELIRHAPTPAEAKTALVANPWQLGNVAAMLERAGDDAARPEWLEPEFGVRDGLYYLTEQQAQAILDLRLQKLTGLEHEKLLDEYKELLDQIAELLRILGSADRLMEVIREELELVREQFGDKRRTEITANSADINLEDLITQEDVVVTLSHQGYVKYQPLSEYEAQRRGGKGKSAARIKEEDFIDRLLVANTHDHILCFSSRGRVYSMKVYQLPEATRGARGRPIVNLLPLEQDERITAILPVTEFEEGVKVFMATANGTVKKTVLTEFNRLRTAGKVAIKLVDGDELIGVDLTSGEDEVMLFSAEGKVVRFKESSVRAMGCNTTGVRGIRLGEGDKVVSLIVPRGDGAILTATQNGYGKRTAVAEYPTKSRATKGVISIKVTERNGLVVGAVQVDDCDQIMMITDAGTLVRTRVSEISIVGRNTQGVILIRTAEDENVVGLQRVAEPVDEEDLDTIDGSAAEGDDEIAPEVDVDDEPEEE
Sequence of S. aureus GyrB ATPase (P0A0K8 whole entry): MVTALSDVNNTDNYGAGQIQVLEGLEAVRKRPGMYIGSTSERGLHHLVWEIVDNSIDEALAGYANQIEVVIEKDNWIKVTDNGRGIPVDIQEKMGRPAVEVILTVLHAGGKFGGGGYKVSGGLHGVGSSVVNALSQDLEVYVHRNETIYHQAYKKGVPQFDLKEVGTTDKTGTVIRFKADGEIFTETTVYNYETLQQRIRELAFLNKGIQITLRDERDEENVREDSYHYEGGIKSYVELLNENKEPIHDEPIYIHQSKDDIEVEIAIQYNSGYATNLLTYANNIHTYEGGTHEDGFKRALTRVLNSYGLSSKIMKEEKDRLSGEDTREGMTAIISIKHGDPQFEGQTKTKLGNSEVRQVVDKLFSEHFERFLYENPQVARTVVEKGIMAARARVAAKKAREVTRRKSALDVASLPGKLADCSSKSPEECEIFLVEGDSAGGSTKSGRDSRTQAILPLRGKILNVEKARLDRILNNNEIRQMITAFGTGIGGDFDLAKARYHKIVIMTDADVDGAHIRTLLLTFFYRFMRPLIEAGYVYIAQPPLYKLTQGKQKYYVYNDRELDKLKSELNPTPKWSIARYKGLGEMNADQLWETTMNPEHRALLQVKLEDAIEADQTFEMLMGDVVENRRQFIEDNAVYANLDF

Compound	inhibition at 1 µM [%]
CCNC(=O)Nc1cc(-c2nc(C(F)(F)F)cs2)c(-c2ccc3c(c2)c(=O)c(C(=O)O)cn3[C@H](COP(=O)(O)O)C(C)(C)C)cn1 [Example 3, (S)-1-(3,3-dimethyl-1-(phosphonooxy)butan-2-yl)-6-(6-(3-ethylureido)-4-(4-(trifluoromethyl)thiazol-2-yl)pyridin-3-yl)-4-oxo-1,4-dihydroquinoline-3-carboxylic acid]	108
CCNC(=O)Nc1cc(-c2nc(C(F)(F)F)cs2)c(-c2ccc3c(c2)c(=O)c(C(=O)O)cn3[C@@H](CC)COP(=O)(O)O)cn1 [Example 5, (S)-6-(6-(3-ethylureido)-4-(4-(trifluoromethyl)thiazol-2-yl)pyridin-3-yl)-4-oxo-1-(1-(phosphonooxy)butan-2-yl)-1,4-dihydroquinoline-3-carboxylic acid]	120
CCNC(=O)Nc1cc(-c2nc(C(F)(F)F)cs2)c(-c2ccc3c(c2)c(=O)c(C(=O)O)cn3[C@H](CC)COP(=O)(O)O)cn1 [Example 6, (R)-6-(6-(3-ethylureido)-4-(4-(trifluoromethyl)thiazol-2-yl)pyridin-3-yl)-4-oxo-1-(1-(phosphonooxy)butan-2-yl)-1,4-dihydroquinoline-3-carboxylic acid]	96
CCNC(=O)Nc1cc(-c2nc(C(F)(F)F)cs2)c(-c2ccc3c(c2)c(=O)c(C(=O)O)cn3[C@H](COP(=O)(O)O)CC(C)C)cn1 [Example 7, (5)-6-(6-(3-ethylureido)-4-(4-(trifluoromethyl)thiazol-2-yl)pyridin-3-yl)-1-(4-methyl-1-(phosphonooxy)pentan-2-yl)-4-oxo-1,4-dihydroquinoline-3-carboxylic acid]	111
CCNC(=O)Nc1cc(-c2nc(C(F)(F)F)cs2)c(-c2ccc3c(c2)c(=O)c(C(=O)NCCOP(=O)(O)O)cn3C(COC)COC)cn1 [Example 8, 2-(1-(1,3-dimethoxypropan-2-yl)-6-(6-(3-ethylureido)-4-(4-(trifluoromethyl)thiazol-2-yl)pyridin-3-yl)-4-oxo-1,4-dihydroquinoline-3-carboxamido)ethyl dihydrogen phosphate hydrochloride]	108
CCNC(=O)Nc1cc(-c2nc(C(F)(F)F)cs2)c(-c2ccc3c(c2)c(=O)c(C(=O)NCCOP(=O)(O)O)cn3C2CC2)cn1 [Example 9, 2-(1-cyclopropyl-6-(6-(3-ethylureido)-4-(4-(trifluoromethyl)thiazol-2-yl)pyridin-3-yl)-4-oxo-1,4-dihydroquinoline-3-carboxamido)ethyl dihydrogen phosphate hydrochloride]	103
CCNC(=O)Nc1cc(-c2nc(C(F)(F)F)cs2)c(-c2ccc3c(c2)c(=O)c(C(=O)NCCCOP(=O)(O)O)cn3C(COC)COC)cn1 [Example 10, 3-(1-(1,3-dimethoxypropan-2-y1)-6-(6-(3-ethylureido)-4-(4-(trifluoromethyl)thiazol-2-yl)pyridin-3-yl)-4-oxo-1,4-dihydroquinoline-3-carboxamido)propyl dihydrogen phosphate hydrochloride]	12
CCNC(=O)Nc1cc(-c2nc(C(F)(F)F)cs2)c(-c2ccc3c(c2)c(=O)c(C(=O)NCCCOP(=O)(O)O)cn3C2CC2)cn1 [Example 11, 3-(1-cyclopropyl-6-(6-(3-ethylureido)-4-(4-(trifluoromethyl)thiazol-2-yl)pyridin-3-yl)-4-oxo-1,4-dihydroquinoline-3-carboxamido)propyl dihydrogen phosphate hydrochloride]	108
CCNC(=O)Nc1cc(-c2nc(C3CC3)cs2)c(-c2ccc3c(c2)c(=O)c(C(=O)O)cn3[C@H](COP(=O)(O)O)CC(C)C)cn1 [Example 12, (S)-6-(4-(4-cyclopropylthiazol-2-yl)-6-(3-ethylureido)pyridin-3-yl)-1-(4-methyl-1-(phosphonooxy)pentan-2-yl)-4-oxo-1,4-dihydroquinoline-3-carboxylic acid]	104
CCNC(=O)Nc1cc(-c2nc(C(F)(F)F)cs2)c(-c2ccc3c(=O)c(C(=O)NCCCOP(=O)(O)O)cn(Cc4noc(C)n4)c3c2)cn1 [Example 13, 3-{[(7-{6[(ethylcarbamoyl)amino]-4-[4-(trifluoromethyl)-1,3-thiazol-2-yl]pyridin-3-yl}-1-[(5-methyl-1,2,4-oxadiazol-3-yl)methyl]-4-oxo-1,4-dihydroquinolin-3-yl)carbonyl]amino}propyl dihydrogen phosphate]	99
CCNC(=O)Nc1cc(-c2nc(C(F)(F)F)cs2)c(-c2ccc3c(=O)c(C(=O)NCCCOP(=O)(O)O)cn(CC)c3c2)cn1 [Example 14, 3-{[(1-ethyl-7-{6-[(ethylcarbamoyl)amino]-4-[4-(trifluoromethyl)-1,3-thiazol-2-yl]pyridin-3-yl}-4-oxo-1,4-dihydroquinolin-3-yl)carbonyl]amino}propyl dihydrogen phosphate]	97
CCNC(=O)Nc1cc(-c2nc(C(F)(F)F)cs2)c(-c2ccc3c(=O)c(C(=O)NCCCOP(=O)(O)O)cn(CC4CC4)c3c2)cn1 [Example 15, phosphate hydrochloride]	76
CCNC(=O)Nc1cc(-c2nc(C(F)(F)F)cs2)c(-c2ccc3c(=O)c(C(=O)NCCCOP(=O)(O)O)cn(CCC(C)C)c3c2)cn1 [Example 16, 3-({[7-{6-[(ethylcarbamoyl)amino]-4-[4-(trifluoromethyl)-1,3-thiazol-2-yl]pyridin-3-yl}-1-(3-methylbutyl)-4-oxo-1,4-dihydroquinolin-3-yl]carbonyl}amino)propyl dihydrogen phosphate]	100
CCCn1cc(C(=O)NCCCOP(=O)(O)O)c(=O)c2ccc(-c3cnc(NC(=O)NCC)cc3-c3nc(C(F)(F)F)cs3)cc21 [Example 17, 3-{[(7-{6-[(ethylcarbamoyl)amino]-4-[4-(trifluoromethyl)-1,3-thiazol-2-yl]pyridin-3-yl}-4-oxo-1-propyl-1,4-dihydroquinolin-3-yl)carbonyl]amino}propyl dihydrogen phosphate]	100
CCNC(=O)Nc1cc(-c2nc(C(F)(F)F)cs2)c(-c2ccc3c(c2)c(=O)c(C(=O)OCCOP(=O)(O)O)cn3C2CC2)cn1 [Example 18, 2-(phosphonooxy)ethyl 1-cyclopropyl-6-(6-(3-ethylureido)-4-(4-(trifluoromethyl)thiazol-2-yl)pyridin-3-yl)-4-oxo-1,4-dihydroquinoline-3-carboxylate hydrochloride]	104
CCNC(=O)Nc1cc(-c2nc(C(F)(F)F)cs2)c(-c2ccc3c(c2)c(=O)c(C(=O)OCCOP(=O)(O)O)cn3C(COC)COC)cn1 [Example 19, 2-(phosphonooxy)ethyl 1-(1,3-dimethoxypropan-2-yl)-6-(6-(3-ethylureido)-4-(4-(trifluoromethyl)thiazol-2-yl)pyridin-3-yl)-4-oxo-1,4-dihydroquinoline-3-carboxylate]	110
CCNC(=O)Nc1cc(-c2nc(C(F)(F)F)cs2)c(-c2cc3c(=O)c(C(=O)O)cn(CCN(C)C)c3cc2F)cn1 [Example 20, 1-(2-(dimethylamino)ethyl)-6-(6-(3-ethylureido)-4-(4-(trifluoromethyl)thiazol-2-yl)pyridin-3-yl)-7-fluoro-4-oxo-1,4-dihydroquinoline-3-carboxylic acid]	106
